# According to article PMC8456958, “Selective Bacterial Targeting and Infection‐Triggered Release of Antibiotic Colistin Conjugates” (Angewandte Chemie (International Ed. in English), 2021):
# Assays:
# [1] = test system: human neutrophil granulocytes (PMN); experiment: Activation of human neutrophil granulocytes (CD66b, flow cytometry); type: cell-based; conditions: 0.1 μM fMLP, 1 h at 37 °C with shaking, FITC-labeled anti CD66b antibody; three independent experiments
# Experimental: HPLC-MS measurements were carried out in triplicate. Data from MRM measurements were analyzed with Skyline (vers. 18.3, MacCoss Laboratory, University of Washington).
# Isolation of Neutrophil Granulocytes from human blood
# The MACSxpress Neutrophil Isolation Kit, human from Miltenyi Biotec (Bergisch-Gladbach, Germany) was employed. Fresh venous EDTA blood was processed within 1 h. 65 mg of the MACSxpress whole blood isolation cocktail (lyophilized powder) were mixed with 1 ml of buffer A (from the kit). Then 1 ml of buffer B (from the kit) was added, and the well-mixed cocktail was added to 4 ml of peripheral whole blood in a 15 ml tube. The mixture was gently inverted 3 times and mixed on a tube rotator at 50 rpm for 5 min at rt. The tube was placed, without cap, for 20 min into a strong magnetic field (neodymium magnets). The suspension containing the PMN was collected into a fresh 15 ml tube by careful pipetting. […]
# All steps were carried out with cooled media (4 °C) and the vials were kept on ice. Freshly isolated neutrophil granulocytes in RPMI 1640 were counted, followed by centrifugation at 200 x g for 10 min at 4 °C. […]
# 50 µl of the diluted detection antibody (diluted with Reagent Diluent) with a final concentration of 250 ng/ml were added and incubated for 1.5 h at 37 °C. […] The absorbance was measured at 450 nm […]
# [2] = test system: neutrophil granulocytes (PMN); experiment: Release of neutrophil elastase from neutrophil granulocytes (ELISA); type: cell-based, human; conditions: stimulation with 0.1 μM fMLP
# Experimental: Figure 5 Cellular proof of concept for triggered antibiotic release from 6. a) Release of neutrophil elastase (NE) from neutrophil granulocytes. PMN were isolated and suspended in RPMI 1640. For activation, 0.1 μM fMLP was added. The samples were incubated for 1 h at 37 °C, centrifuged to remove cells, and the NE concentration was determined in the supernatant by ELISA. Values normalized to 1×10^6 cells mL^−1. Data are presented as the mean of 4 separate experiments. *p<0.03 compared to unactivated. b) Activity of NE after co‐cultivation of PMN with E. coli K12 in presence of 1 or 6. 5×10^5 cells mL^−1 of PMN were co‐cultivated with 8×10^6 cells mL^−1 of E. coli K12 (ratio of bacteria : PMN 16:1) for 1 h at 37 °C in RPMI 1640/HEPES‐NaCl 1:1. Data are presented as the mean of two separate experiments. c) Release of colistin from 6. […] After 1 h colistin concentrations were determined by HPLC–MS. […]
# 50 µl of the diluted detection antibody (diluted with Reagent Diluent) with a final concentration of 250 ng/ml were added and incubated for 1.5 h at 37 °C. […] The absorbance was measured at 450 nm together with a correction wavelength of 570 nm, the value of which was subtracted.
# Calculation of results: All samples and standards were measured in duplicate. […]
substance,measurement,setting,value
"N-Formyl-Met-Leu-Phe [fMLP, formyl‐methionyl‐leucyl‐phenylalanine]",increase of the activation state marker CD66b,[1],2.5 fold
same,amount of elastase released by neutrophil granulocytes,"[2]; RPMI 1640, 1 h, 37 °C, supernatant, ELISA, normalized to 1×10^6 cells mL^−1, mean of 4 experiments, basal 39",84 ng/mL
same,"amount of elastase released, as activity","[2]; converted from ELISA amount, basal 2.5",5.5 mU mL^−1
